Patent US20250257111A1, “Supramolecular Complex of a Biomolecule” (Cambridge Enterprise Limited, priority 2022, published 2025)
Square brackets hold non-standard residues; d marks the D form. Peptide text beside a SMILES is read from it. 2Nal = N[C@@H](Cc1ccc2ccccc2c1)C(=O)O

Experiments:
[1] = tested on: 1:1 complex of F′GG-CB[8]; assay: ITC: secondary association of tripeptides with the 1:1 complex of F′GG-CB[8]; type: binding; settings: for secondary association / binding to F′GG-CB[8]: in words; for Ka: 10 mM phosphate buffer pH 7.0, 298 K, averaged with three replicates
Procedure: (§1) Isothermal titration calorimetry (ITC) was employed to study binding thermodynamics of heteropeptide dimerization (FIG. 2c and additional data not shown). Titration of F′GG (3.0 mM) into CB[8](0.1 mM) led to a stepwise binding curve with two transitions at molar ratios of 1.0 and 2.0 (FIG. 2c). The first-step binding constant (K1) is 6.6×10^5 M^−1, while the second-step (K2) is 9.4×10^3 M^−1. This indicates negative cooperativity where K1>K2^18,19,23 Such favourable 1:1 complexation enables secondary access of electron-rich aromatic peptides.
(§2) ITC experiments were operated on a Malvern MicroCal Auto-ITC200 apparatus at 298 K in 10 mM phosphate buffer with pH 7.0. In a of 1 injection of 0.6 μL and 32 consecutive injections of 1.2 μL with 90 s intervals between injections. The first data point was removed before analysis. The ITC data were fitted by MicroCal Analysis Centre software using one set of sites model. In a typical experiment for homoternary complexation, the host molecule (CB[8]) was loaded in the sample cell with a concentration of 0.1 mM, and the guest peptide was loaded in the syringe with a concentration of 2.0 mM. The injection and interval settings were the same as above. The first data point was removed from the data set before analysis. The obtained ITC curves were fitted by MicroCal Analysis Centre software using sequential binding model. All parameters were averaged with three replicates, s.d. n=3.

[2] = cited from earlier work
[3] = ITC: titration of F′GG into CB[8] (stepwise binding); settings: F′GG (3.0 mM) into CB[8] (0.1 mM)
Procedure: as §1
as §2, with “All parameters were averaged with three replicates, s.d. n=3.” left out

[4] = CD secondary structure verification of released insulin; type: physicochemical
Procedure: CD measurements were performed on a Chirascan spectrometer (Applied Photophysics). Scans were carried out at 298 K from 200-500 nm at 1.0 nm intervals. The acquisition time was 0.5 second in a 0.1 cm path length quartz cuvette. CD spectra were collected using solutions from the above UV experiments of the 8-day storage and release experiments. […] All solutions were diluted 2× before the measurements. All scans were collected and averaged out over three scans with background noise correction.

[5] = UV quantification of insulin on-resin recognition, 8-day storage and on-demand release; type: physicochemical
Procedure: UV spectra were obtained on a Cary 4000 Ultravioletvisible Spectrometer. A pair of quartz cuvettes with 2 mm gap was used. Double beam mode with a fixed 2 nm spectral bandwidth and baseline correction were selected. In a typical run, 300 μl of 1 mM solution was transferred to the quartz cuvette and was scanned compared to phosphate buffer in D2O. UV spectra were obtained in the linear absorption range (0.2-0.8) for better quantification.
1 N HCl was immediately added to reach acid concentration of 5 mM. […] In a typical experiment, 8 μmol F′GGGGG equivalent of resin H2O suspension was added to a 12 ml syringe with a polyester frit (r=8.0 mm, h=2.0 mm). After H2Owas drained, 8 ml of 0.1 mM CB[8] solution was added to the resin and the plunge and a stopper were assembled to the syringe to form a sealed chamber. The syringe was transferred onto a wrist-action shaker and shaken for 12 hours. […] Then, the liquid (resin-treated solution) in syringe was drained thoroughly and the resin was washed with H2Oonce. After that, 0.8 ml of 2 mM DMADA solution (in 5 mM of HCl) was added to the resin and shaken gently for an additional 3 hours. The solution (released solution) was drained.
The 8-day storage and release experiment was conducted as follows. 9 syringes were prepared each with 8 μmol F′GGGGG equivalent of resin H2Osuspension. […] All syringes with the resin were kept at room temperature. Starting from day 0 to day 8, on each day, a syringe with resin was added with 0.8 ml of 2 mM DMADA solution (to get released solution, one per day). All yielded solutions were analyzed on UV spectroscopy immediately. Numbers to calculate released percentage in FIG. 4g were absorbance at 276 nm.

## NC(=O)CNC(=O)CNC(=O)[C@@H](N)CCC(=O)O [EGG, reference compound] (H-Glu-Gly-Gly-NH2)
[1]
  secondary association / binding to F′GG-CB[8]: no secondary association

## NC(=O)CNC(=O)CNC(=O)[C@@H](N)Cc1ccccc1 [FGG, (S)-2-amino-N-(2-((2-amino-2-oxoethyl)amino)-2-oxoethyl)-3-phenylpropanamide] (H-Phe-Gly-Gly-NH2)
[2]
  binding strength K of homodimer 2FGG-CB[8]: ca. 10^11 M^−2
[1]
  Ka: 356 ± 26 10^3M^−1

## NCC(=O)N[C@@H](Cc1ccccc1)C(=O)NCC(N)=O [GFG, (S)—N-(2-amino-2-oxoethyl)-2-(2-aminoacetamido)-3-phenylpropanamide] (H-Gly-Phe-Gly-NH2)
[1]
  Ka: 58 ± 3 10^3M^−1

## NCC(=O)NCC(=O)N[C@@H](Cc1ccccc1)C(N)=O [GGF, (S)-2-(2-(2-aminoacetamido)acetamido)-3-phenylpropanamide] (H-Gly-Gly-Phe-NH2)
[1]
  Ka: 22 ± 1 10^3M^−1

## NCC(=O)NCC(=O)N[C@@H](Cc1ccc2ccccc2c1)C(N)=O [GGNp, (S)-2-(2-(2-aminoacetamido)acetamido)-3-(naphthalen-2-yl)propanamide] (H-Gly-Gly-[2Nal]-NH2)
[1]
  Ka: 90 ± 2 10^3M^−1

## NCC(=O)NCC(=O)N[C@@H](Cc1ccc(O)cc1)C(N)=O [GGY, (S)-2-(2-(2-aminoacetamido)acetamido)-3-(4-hydroxyphenyl)propanamide] (H-Gly-Gly-Tyr-NH2)
[1]
  secondary association / binding to F′GG-CB[8]: no secondary binding

## NCC(=O)N[C@@H](Cc1ccc2ccccc2c1)C(=O)NCC(N)=O [GNpG, (S)—N-(2-amino-2-oxoethyl)-2-(2-aminoacetamido)-3-(naphthalen-2-yl)propanamide] (H-Gly-[2Nal]-Gly-NH2)
[1]
  Ka: 165 ± 10 10^3M^−1

## NCC(=O)N[C@@H](Cc1c[nH]c2ccccc12)C(=O)NCC(N)=O [GWG, (S)—N-(2-amino-2-oxoethyl)-2-(2-aminoacetamido)-3-(1H-indol-3-yl)propanamide] (H-Gly-Trp-Gly-NH2)
[1]
  Ka: 103 ± 6 10^3M^−1

## NCC(=O)N[C@@H](Cc1ccc(O)cc1)C(=O)NCC(N)=O [GYG] (H-Gly-Tyr-Gly-NH2)
[1]
  Ka: 4 ± 0.3 10^3M^−1

## NCCCC[C@H](N)C(=O)NCC(=O)NCC(N)=O [KGG, (S)-2,6-diamino-N-(2-((2-amino-2-oxoethyl)amino)-2-oxoethyl)hexanamide, reference compound] (H-Lys-Gly-Gly-NH2)
[1]
  secondary association / binding to F′GG-CB[8]: no secondary association

## CC(C)C[C@H](N)C(=O)NCC(=O)NCC(N)=O [LGG, reference compound] (H-Leu-Gly-Gly-NH2)
[1]
  secondary association / binding to F′GG-CB[8]: no secondary association

## NC(=O)CNC(=O)CNC(=O)[C@@H](N)Cc1ccc2ccccc2c1 [NpGG, (S)-2-amino-N-(2-((2-amino-2-oxoethyl)amino)-2-oxoethyl)-3-(naphthalen-2-yl) propanamide] (H-[2Nal]-Gly-Gly-NH2)
[1]
  Ka: 382 ± 22 10^3M^−1

## NC(=O)CNC(=O)CNC(=O)[C@@H](N)Cc1c[nH]c2ccccc12 [WGG, (S)-2-amino-N-(2-((2-amino-2-oxoethyl)amino)-2-oxoethyl)-3-(1H-indol-3-yl) propanamide] (H-Trp-Gly-Gly-NH2)
[1]
  Ka: 460 ± 53 10^3M^−1

## NC(=O)CNC(=O)CNC(=O)[C@@H](N)Cc1ccc(O)cc1 [YGG] (H-Tyr-Gly-Gly-NH2)
[1]
  Ka: 3 ± 5 10^3M^−1

## (S)-2-amino-N-(2-((2-amino-2-oxoethyl)amino)-2-oxoethyl)-3-(perfluorophenyl) propenamide [F′GG]
[3]
  first-step binding constant (K1): 660000 M⁻¹
  second-step binding constant (K2): 9400 M⁻¹

## insulin: Insulin (Human Recombinant), purchased; widely-used biopharmaceutical for diabetes treatment
[4]; after 2, 5, 8 days of storage under room temperature on functionalized resin
  secondary structures of insulin after storage: intact
[4]; insulin, original
  CD absorbance at 208 nm, signal (mean of repeats): −56.4 θm · deg
[4]; released on day 2
  CD absorbance at 208 nm, signal (mean of repeats): −56.4 θm · deg
[4]; released on day 5
  CD absorbance at 208 nm, signal (mean of repeats): −50.3 θm · deg
[4]; released on day 8
  CD absorbance at 208 nm, signal (mean of repeats): −52.3 θm · deg
[5]; release on day 0
  UV absorbance at 276 nm, released: 0.176 abs
[5]; release on day 2, storage at room temperature
  UV absorbance at 276 nm, released: 0.1768 abs
[5]; release on day 5, storage at room temperature
  UV absorbance at 276 nm, released: 0.1683 abs
[5]; release on day 8, storage at room temperature
  UV absorbance at 276 nm, released: 0.1739 abs
